Assay results as given in US20110082037A1, “Adjuvant Compositions” (COGNIS IP MANAGEMENT GMBH, priority 2008, published 2011).
Where a name gives a salt, the structure may show the parent alone.

Tests used:
[1] = tested on: black nightshade SOLNI (Solanum Nigrum); assay: Greenhouse experiment: influence of adjuvants on glyphosate efficacy on black nightshade (fresh weight 14 DAT); type: in vivo; conditions: adjuvant 0.25% w/v
Method: (§1) Greenhouse experiments were conducted to investigate the potency of the mixtures of alkoxylated oligoglycosides and alkoxylated primary alcohols as adjuvants for glyphosate. Winter wheat (Triticum aestivum) was used as a model for difficult-to-wet grasses and black night-shade (Solanum nigrum) was used as a model plant with an easy-to-wet, but difficult-to-penetrate, leaf surface. Both were grown in a growth chamber under 14 hours of light, at 18/12(±0.5)° C. (day/night) temperature, and in 70/80(±5)% (day/night) relative humidity. Light was provided by high-pressure mercury lamps and fluorescent tubes to give 70 W/m^2 (PAR) at leaf level. The plants were grown in 11 cm diameter plastic pots filled with a mixture of sand and humic potting soil (1:2 by volume). The pots were placed on sub-irrigation matting which was wetted daily with half-strength nutrient solution. After emergence, the wheat seedlings were thinned to six plants/pot for the efficacy experiments. Black nightshade seedlings were thinned to one plant/pot. Black nightshade and wheat were treated at the three- and the four-leaf stage, respectively. The fresh weights of the plants were measured 14 days after treatment (DAT) for black nightshade and 21 DAT for wheat. The glyphosate solutions were applied with an air-pressured laboratory track sprayer with 1.2-mm nozzles fitted with a perforated (0.6 mm) whirling pin and delivering 200 L/ha at 303 kPa. These were added to the unformulated monoisopropylamine salt of glyphosate [MON 8717 (glyphosate IPA salt 648 gai/litre=2.84 M without adjuvant)] at a concentration of 0.25% (w/v). Demineralised water was used as the carrier.
(§2) Based on previous work, these rates were 77.8 gae/hectare (equivalent to 2.3 mM at 200 litres/hectare) on wheat and 30.4 gae/hectare (equivalent to 0.9 mM) on black nightshade. The experiments were conducted as a randomised complete block with four replicates. Two separate experiments were conducted for each of the two plant species. The data was subjected to analysis of variance using the Genstat statistical package (Release 6.1 from Rothamsted Experimental Station). The performance of the products on both species was expressed as a percentage of the FW of untreated plants. Examples 1 to 8 are according to the invention, examples C1 to C12 serve as comparison.

[2] = tested on: Winter wheat (Triticum aestivum); assay: Greenhouse experiment: influence of adjuvants on glyphosate efficacy on wheat (fresh weight 21 DAT); type: in vivo; conditions: adjuvant 0.25% w/v
Method: as §1, §2

[3] = 0.6 mM glyphosate (20.3 g a.e./ha at 200 L/ha)
[4] = 0.9 mM glyphosate (30.4 g a.e./ha at 200 L/ha)
[5] = average of trials 1 and 2, glyphosate 2.3 mM
[6] = glyphosate 2.3 mM (77.8 g a.e./ha at 200 L/ha)

## O=C(O)CNCP(=O)(O)O [Gly, monoisopropylamine salt of glyphosate]
[1]; [3]
  Trial 2 % (FW as percentage of the FW of untreated plants): 84.5%
  Trial 2 g FW: 14.66 g
[1]; [4]
  Trial 1 % (FW as percentage of the FW of untreated plants): 35.1%
  Trial 1 g FW: 5.59 g
[2]; [5]
  Average % (FW as percentage of the FW of untreated plants): 78.3%
  Average g FW: 18.15 g
[2]; [6]
  Trial 1 g FW: 22.33 g
  Trial 2 g FW: 13.97 g
